Measured values taken from US10800734B2, “Memantine compounds and their preparation and uses thereof” (Sunshine Lake Pharma Co., Ltd., priority 2016, dated 2020).
Where two headings read alike, the source gives them in different places.

Legend:
[1] = type: in vitro ADME; conditions: human, microsomes, 1 μM, pH 7.4
Protocol: (§1) Analytical LC/MS/MS systems: Agilent 1200 Series vacuum degasser, dual-injection pump, orifice autosampler, column incubator, charged spray ionization (ESI) source, and Agilent G6430 three-stage quadrupole mass spectrometer. The quantitative analysis is performed in the MRM mode, with the following MRM conversion parameters:
Analytical Agilent Poroshell HPH-C18: 2.1×50 mm, 2.7 μM column, 20 μL of sample was injected. Conditions: mobile phase with ammonium formate+0.1% formic acid (A) and methanol+2 mM ammonium formate+0.1% formic acid (B). The flow rate was 0.3 mL/min. The mobile phase gradient is as follows: […]
Agilent 6330 Series LC/MS/MS spectrometer was equipped with G1312A binary injection pump, G1367A automatic sampler and MS/MS detector; LC/MS/MS was used with ESI source. Suitable cationic model treatments and MRM conversion were used for each analyte using standard solution for optimal analysis. The Agilent Poroshell HPH-C18 column was used during the analysis with a specification of 100×4.6 mm I.D., 5 μM. The mobile phase included ammonium formate+0.1% formic acid (A) and methanol+2 mM ammonium formate+0.1% formic acid (B). The flow rate was 0.3 mL/min; the column temperature was maintained at 40° C.; 20 μL of sample was injected.
A human liver microsomal incubation system was used for the testing. The incubation mixtures included human or rat liver microsomes (0.5 mg protein/mL), the tested compound was provided at 1 μM. The compound was dissolved in DMSO and diluted with acetonitrile water and mixed with a mixture of liver microparticle potassium phosphate buffer solution (pH=7.4). The above operations were done on wet ice, and incubated in a thermostatic incubator at 37° C. At different time points (0, 60 and 120 min), ice-cold acetonitrile was added to terminate the reaction. NADPH was not added during the reaction, and the effect of esterase on its conversion was examined. Samples were stored at −80° C. until LC/MS/MS analysis was performed.
The conversion of the compounds of the disclosure to active adamantane compound, which is memantine in the human liver microsome was determined by LC/MS/MS.

[2] = In vivo pharmacokinetics after intramuscular administration in rats
Protocol: Legend format: tested compound/dose (mg/kg)/converted active adamantane compound, which is memantine.
as §1
Waters XBridge TMC18, 2.1×30 mm, 3.5 μM column; 20 μL of sample was injected in each run. Conditions: The mobile phase included […]+2 mM ammonium formate+0.1% formic acid (A) and methanol+2 mM ammonium formate+0.1% formic acid (B). The flow rate was 0.35 mL/min. The mobile phase gradient is as follows: […]
Additional instruments and reagents included Agilent 6330 Series LC/MS/MS spectrometer equipped with a G1312A Binary Injection Pump, G1367A autosampler and MS/MS Detector for analysis; LC/MS/MS spectrometer with ESI source. Suitable cationic model treatments and MRM conversion were used for each analyte using standard solution for optimal analysis. Waters XBridge TMC18 was used with specifications of 2.1×30 mm, 3.5 μM. The reaction was carried out with ammonium formate+2 mM ammonium formate+0.1% formic acid (A) and methanol+2 mM ammonium formate+0.1% formic acid (B). The flow rate was 0.35 mL/min; the column temperature was maintained at 40° C.; 10 μL of sample was injected.
This example conducted pharmacokinetic studies of various compounds of the present disclosure in rats. The compounds were subjected to pretreatment including grinding and sieving, and were then added to a mixture formed by dissolving and dispersing in Tween-20 and/or Span-20. The mixtures were uniformly dispersed and fixed. The suspensions were pulverized by a ball mill […]. Memantine (MJG, 17.5 mg/kg) or tested compounds (75 or 37.5 mg/kg) were administered by intramuscular administration. Whole blood was collected at 0.25, 1, 2, 5, 7, 24, 48, 72, 96, 120, 148 and 196 h, was centrifuged at 12,000 g for 2 minutes. Plasma was collected and stored at −20° C. or −70° C. until the LC/MS/MS analysis was performed.

[3] = rat, im, solution, 17.5 mg/kg, memantine in plasma

| Structure (SMILES) | Percentage of Remaining or Converted Active Adamantane Compound ([1]; 1 h) [%] | Percentage of Remaining or Converted Active Adamantane Compound ([1]; 2 h) [%] | T½ ([2]; suspension, 75 mg/kg, converted memantine in plasma) | AUC(0-t) [2, 3] [ng·h/mL] | Cmax [2, 3] [ng/mL] | Tmax [2, 3] [h] | half-life ([2]; rat, plasma, im, 17.5 mg/kg, solution, 17.5 mg/kg, memantine in plasma, read-out: T½ (converted)) [h] | T½ ([2]; solution, 17.5 mg/kg, memantine in plasma) [h] |
| --- | --- | --- | --- | --- | --- | --- | --- | --- |
| CC12CC3CC(C)(C1)CC(NC(=O)OCOC(=O)Cc1cccc4ccccc14)(C3)C2 [Compound 1] | 108 | 101 |  |  |  |  |  |  |
| CCCCCCCCCCCC(=O)OCOC(=O)NC12CC3CC(C)(CC(C)(C3)C1)C2 [Compound 3] | 35.6 | 35.6 |  |  |  |  |  |  |
| CCCCCCCCCCCCCCCC(=O)OCOC(=O)NC12CC3CC(C)(CC(C)(C3)C1)C2 [Compound 4] | 25.3 | 34 |  |  |  |  |  |  |

Results, then the compound that gave them:

| Percentage of Remaining or Converted Active Adamantane Compound ([1]; 1 h) [%] | Percentage of Remaining or Converted Active Adamantane Compound ([1]; 2 h) [%] | T½ ([2]; suspension, 75 mg/kg, converted memantine in plasma) | AUC(0-t) [2, 3] [ng·h/mL] | Cmax [2, 3] [ng/mL] | Tmax [2, 3] [h] | half-life ([2]; rat, plasma, im, 17.5 mg/kg, solution, 17.5 mg/kg, memantine in plasma, read-out: T½ (converted)) [h] | T½ ([2]; solution, 17.5 mg/kg, memantine in plasma) [h] | Structure (SMILES) |
| --- | --- | --- | --- | --- | --- | --- | --- | --- |
| 134 | 118 | too high to be measurable |  |  |  |  |  | CC12CC3CC(C)(C1)CC(NC(=O)OCOC(=O)c1ccccc1)(C3)C2 [Compound 2] |
| 98 | 98 |  | 11800 | 1940 | 1.33 | ~4 | 4 | CC12CC3CC(C)(C1)CC(N)(C3)C2 [MJG, memantine] |
